Assay results reported in ChEMBL document CHEMBL6078655, “Engineering of Novel Analogues That Are More Receptor-Selective and Potent than the Native Hormone, Insulin-like Peptide 5 (INSL5)” (J Med Chem, 2024).
Calls of active or inactive are those of the source. The calls are words filed in the database; no cut-off is given here. Where a SMILES comes first, the peptide text is derived from it. Bridges are numbered along the chain shown (N, C = ends). Roman numbers before positions name the chains, in order. [ ]: non-standard residue; d: D form. 1Nal = N[C@@H](Cc1cccc2ccccc12)C(=O)O; 2Nal = N[C@@H](Cc1ccc2ccccc2c1)C(=O)O; Agb = N=C(N)NCC[C@H](N)C(=O)O

Assays:
Relaxin-3 receptor 2 [1] = target: T1, Relaxin-3 receptor 2 (Homo sapiens, UniProt Q8TDU9); test: Binding affinity to LgBiT-tagged RXFP4 (unknown origin) expressed in HEK cells assessed as inhibition constant incubated for 1 hr by NanoBiT assay; format: cell-based
Relaxin-3 receptor 2 [2] = target: T1, Relaxin-3 receptor 2; test: Agonist activity at RXFP4 (unknown origin) expressed in CHO cells co-transfected with pCRE-galactosidase reporter plasmid assessed as inhibition of forskolin-induced cAMP accumulation incubated for 6 hrs by reporter gene assay; format: functional, cell-based
Relaxin-3 receptor 1 [3] = target: T2, Relaxin-3 receptor 1 (Homo sapiens, UniProt Q9NSD7); test: Binding affinity to SmBit-tagged RXFP3 (unknown origin) expressed in HEK cells assessed as inhibition constant incubated for 1 hr by NanoBiT assay; format: cell-based; settings: read-out: Ki
T2 sequence (Q9NSD7 whole entry): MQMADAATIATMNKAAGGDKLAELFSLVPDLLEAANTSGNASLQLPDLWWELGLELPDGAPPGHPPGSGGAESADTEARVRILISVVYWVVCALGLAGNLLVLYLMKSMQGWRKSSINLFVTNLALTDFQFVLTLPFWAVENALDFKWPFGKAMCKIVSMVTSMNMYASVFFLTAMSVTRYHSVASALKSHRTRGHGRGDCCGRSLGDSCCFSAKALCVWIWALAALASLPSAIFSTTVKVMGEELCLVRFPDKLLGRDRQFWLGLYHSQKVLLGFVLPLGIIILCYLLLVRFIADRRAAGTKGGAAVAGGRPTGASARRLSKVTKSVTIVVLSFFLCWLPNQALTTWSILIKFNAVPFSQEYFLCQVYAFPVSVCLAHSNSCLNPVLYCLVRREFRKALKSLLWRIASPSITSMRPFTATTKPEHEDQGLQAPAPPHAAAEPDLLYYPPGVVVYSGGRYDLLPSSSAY

[4] = target: T3, Relaxin-3 receptor 1 (Homo sapiens) (UniProt Q9NSD7); test: (§1) Agonist activity at RXFP3 (unknown origin) expressed in CHO cells co-transfected with pCRE-galactosidase reporter plasmid assessed as inhibition of forskolin-induced cAMP accumulation incubated for 6 hrs by reporter gene assay; format: functional, cell-based
T3 sequence (whole entry): T2 sequence (Q9NSD7 whole entry)

[5] = Selectivity index, ratio of Ki for binding affinity to SmBit-tagged RXFP3 (unknown origin) expressed in HEK cells assessed as inhibition constant to Ki for binding affinity to LgBiT-tagged RXFP4 (unknown origin) expressed in HEK cells assessed as inhibition constant; format: cell-based
Relaxin-3 receptor 2 [6] = target: T1, Relaxin-3 receptor 2; test: Agonist activity at RXFP4 in HEK293T cells assessed as beta-arrestin2 recruitment pretreated with coelenterazine for 10 mins followed by compound addition by BRET assay; format: functional, cell-based
Relaxin-3 receptor 1 [7] = target: T2, Relaxin-3 receptor 1; test: as §1; format: functional, cell-based

T1 sequence (Q8TDU9 whole entry): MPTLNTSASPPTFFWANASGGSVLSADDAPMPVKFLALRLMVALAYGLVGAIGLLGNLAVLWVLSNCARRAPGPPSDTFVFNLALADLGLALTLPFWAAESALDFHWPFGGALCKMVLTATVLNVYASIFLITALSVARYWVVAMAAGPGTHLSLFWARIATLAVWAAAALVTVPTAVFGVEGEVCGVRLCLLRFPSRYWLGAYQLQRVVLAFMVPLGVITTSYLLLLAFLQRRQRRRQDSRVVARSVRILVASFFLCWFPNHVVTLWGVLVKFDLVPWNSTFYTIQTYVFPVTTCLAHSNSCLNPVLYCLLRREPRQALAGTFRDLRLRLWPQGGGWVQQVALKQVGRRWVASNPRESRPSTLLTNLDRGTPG

| SMILES | Ki (Relaxin-3 receptor 2 [1]) [nM] | EC50 (Relaxin-3 receptor 2 [2]; read-out: EC50) [nM] | EC50 (Relaxin-3 receptor 2 [2]; read-out: pEC50 (converted)) [nM] | Ki (Relaxin-3 receptor 1 [3]) [nM] | Activity [4] | Ratio Ki [5] | Activity (Relaxin-3 receptor 2 [6]) | EC50 (Relaxin-3 receptor 1 [7]; cho, read-out: EC50) [nM] | EC50 (Relaxin-3 receptor 1 [7]; read-out: pEC50 (converted)) [nM] | Activity (Relaxin-3 receptor 2 [2]) | EC50 (Relaxin-3 receptor 1 [7]; read-out: EC50) [nM] | EC50 (Relaxin-3 receptor 2 [6]) [nM] |
| --- | --- | --- | --- | --- | --- | --- | --- | --- | --- | --- | --- | --- |
| CC[C@H](C)[C@@H]1NC(=O)[C@H](Cc2ccc(O)cc2)NC(=O)[C@H]([C@@H](C)CC)NC(=O)[C@H](C(C)C)NC(=O)[C@H]([C@@H](C)O)NC(=O)[C@H](CCCNC(=N)N)NC(=O)[C@H]([C@@H](C)CC)NC(=O)[C@H](Cc2ccc(O)cc2)NC(=O)[C@H](CCC(=O)O)NC(=O)[C@H](CC(C)C)NC(=O)CNC(=O)[C@@H](NC(=O)[C@H](CC(C)C)NC(=O)[C@H](CCCNC(=N)N)NC(=O)[C@@H](NC(=O)[C@H](CO)NC(=O)[C@H](CCC(=O)O)NC(=O)[C@@H](N)CCCCN)C(C)C)CSSC[C@H](N)C(=O)N[C@@H]([C@@H](C)O)C(=O)N[C@@H](CC(=O)O)C(=O)NCC(=O)N[C@@H](C)C(=O)N[C@@H](CO)C(=O)N[C@@H](CCSC)C(=O)N[C@@H](CCCCN)C(=O)N[C@@H](CC(=O)O)C(=O)N[C@@H](CC(C)C)C(=O)N[C@@H](CO)C(=O)N[C@@H](C)C(=O)N[C@@H](CC(C)C)C(=O)N[C@H](C(=O)O)CSSC[C@@H](C(=O)N[C@@H](C)C(=O)N[C@@H](CO)C(=O)N[C@@H](CO)C(=O)N[C@@H](CCNC(=N)N)C(=O)N[C@@H](Cc2c[nH]c3ccccc23)C(=O)O)NC1=O (I: H-KESVRLCGLEYIRTVIYICASS[Agb]W-OH / II: H-CTDGASMKDLSALC-OH; disulfide I:7-II:1, I:19-II:14) | 14.1 | > 100000 | > 10000 | – | – | – | – | – | – | – | – | – |
| CC[C@H](C)[C@@H]1NC(=O)[C@H](Cc2ccc(O)cc2)NC(=O)[C@H]([C@@H](C)CC)NC(=O)[C@H](C(C)C)NC(=O)[C@H]([C@@H](C)O)NC(=O)[C@H](CCCNC(=N)N)NC(=O)[C@H]([C@@H](C)CC)NC(=O)[C@H](Cc2ccc(O)cc2)NC(=O)[C@H](CCC(=O)O)NC(=O)[C@H](CC(C)C)NC(=O)CNC(=O)[C@@H](N)CSSC[C@H](N)C(=O)N[C@@H]([C@@H](C)O)C(=O)N[C@@H](CC(=O)O)C(=O)NCC(=O)N[C@@H](CS)C(=O)N[C@H](CO)C(=O)N[C@@H](CCSC)C(=O)N[C@@H](CCCCN)C(=O)N[C@@H](CC(=O)O)C(=O)N[C@@H](CC(C)C)C(=O)N[C@@H](CO)C(=O)N[C@@H](C)C(=O)N[C@@H](CC(C)C)C(=O)N[C@H](C(=O)O)CSSC[C@@H](C(=O)N[C@@H](C)C(=O)N[C@@H](CO)C(=O)N[C@@H](CO)C(=O)N[C@@H](CCCNC(=N)N)C(=O)N[C@@H](Cc2c[nH]c3ccccc23)C(=O)O)NC1=O | 8.71 | 8.32 | – | 426 | inactive | 49 | – | – | – | – | – | – |
| CC[C@H](C)[C@@H]1NC(=O)[C@H](Cc2ccc(O)cc2)NC(=O)[C@H]([C@@H](C)CC)NC(=O)[C@H](C(C)C)NC(=O)[C@H]([C@@H](C)O)NC(=O)[C@H](CCCNC(=N)N)NC(=O)[C@H]([C@@H](C)CC)NC(=O)[C@H](Cc2ccc(O)cc2)NC(=O)[C@H](CCC(=O)O)NC(=O)[C@H](CC(C)C)NC(=O)CNC(=O)[C@@H](NC(=O)[C@H](CC(C)C)NC(=O)[C@H](CCCNC(=N)N)NC(=O)[C@@H](NC(=O)[C@H](CO)NC(=O)[C@H](CCC(=O)O)NC(=O)[C@@H](N)CCCCN)C(C)C)CSSC[C@H](N)C(=O)N[C@@H]([C@@H](C)O)C(=O)N[C@@H](CC(=O)O)C(=O)NCC(=O)N[C@@H](C)C(=O)N[C@@H](CO)C(=O)N[C@@H](CCSC)C(=O)N[C@@H](CCCCN)C(=O)N[C@@H](CC(=O)O)C(=O)N[C@@H](CC(C)C)C(=O)N[C@@H](CO)C(=O)N[C@@H](C)C(=O)N[C@@H](CC(C)C)C(=O)N[C@H](C(=O)O)CSSC[C@@H](C(=O)N[C@@H](C)C(=O)N[C@@H](CO)C(=O)N[C@@H](CO)C(=O)N[C@@H](CCNC(=N)N)C(=O)N[C@@H](Cc2ccc3ccccc3c2)C(=O)O)NC1=O (I: H-KESVRLCGLEYIRTVIYICASS[Agb][2Nal]-OH / II: H-CTDGASMKDLSALC-OH; disulfide I:7-II:1, I:19-II:14) | 3.47 | > 100000 | > 10000 | – | – | – | inactive | – | – | – | – | – |
| CC[C@H](C)[C@@H]1NC(=O)[C@H](Cc2ccc(O)cc2)NC(=O)[C@H]([C@@H](C)CC)NC(=O)[C@H](C(C)C)NC(=O)[C@H]([C@@H](C)O)NC(=O)[C@H](CCCNC(=N)N)NC(=O)[C@H]([C@@H](C)CC)NC(=O)[C@H](Cc2ccc(O)cc2)NC(=O)[C@H](CCC(=O)O)NC(=O)[C@H](CC(C)C)NC(=O)CNC(=O)[C@@H](N)CSSC[C@H](N)C(=O)N[C@@H]([C@@H](C)O)C(=O)N[C@@H](CC(=O)O)C(=O)NCC(=O)N[C@@H](CS)C(=O)N[C@H](CO)C(=O)N[C@@H](CCSC)C(=O)N[C@@H](CCCCN)C(=O)N[C@@H](CC(=O)O)C(=O)N[C@@H](CC(C)C)C(=O)N[C@@H](CO)C(=O)N[C@@H](C)C(=O)N[C@@H](CC(C)C)C(=O)N[C@H](C(=O)O)CSSC[C@@H](C(=O)NCC(=O)N[C@@H](CO)C(=O)N[C@@H](CO)C(=O)N[C@@H](CCCNC(=N)N)C(=O)N[C@@H](Cc2c[nH]c3ccccc23)C(=O)O)NC1=O | 18.2 | 7.76 | – | 427 | – | 23.4 | – | > 10000 | > 10000 | – | – | – |
| CC[C@H](C)[C@@H]1NC(=O)[C@H](Cc2ccc(O)cc2)NC(=O)[C@H]([C@@H](C)CC)NC(=O)[C@H](C(C)C)NC(=O)[C@H]([C@@H](C)O)NC(=O)[C@H](CCCNC(=N)N)NC(=O)[C@H]([C@@H](C)CC)NC(=O)[C@H](Cc2ccc(O)cc2)NC(=O)[C@H](CCC(=O)O)NC(=O)[C@H](CC(C)C)NC(=O)CNC(=O)[C@@H](N)CSSC[C@H](N)C(=O)N[C@@H]([C@@H](C)O)C(=O)N[C@@H](CC(=O)O)C(=O)NCC(=O)N[C@@H](C)C(=O)N[C@@H](CO)C(=O)N[C@@H](CCSC)C(=O)N[C@@H](CCCCN)C(=O)N[C@@H](CC(=O)O)C(=O)N[C@@H](CC(C)C)C(=O)N[C@@H](CO)C(=O)N[C@@H](C)C(=O)N[C@@H](CC(C)C)C(=O)N[C@H](C(=O)O)CSSC[C@@H](C(=O)N[C@@H](C)C(=O)N[C@@H](CO)C(=O)N[C@@H](CO)C(=O)N[C@@H](CCNC(=N)N)C(=O)N[C@@H](Cc2cccc3ccccc23)C(=O)O)NC1=O (I: H-CGLEYIRTVIYICASS[Agb][1Nal]-OH / II: H-CTDGASMKDLSALC-OH; disulfide I:1-II:1, I:13-II:14) | 3.09 | 9.12 | – | – | – | – | – | – | – | inactive | – | – |
| CC[C@H](C)[C@@H]1NC(=O)[C@H](Cc2ccc(O)cc2)NC(=O)[C@H]([C@@H](C)CC)NC(=O)[C@H](C(C)C)NC(=O)[C@H]([C@@H](C)O)NC(=O)[C@H](CCCNC(=N)N)NC(=O)[C@H]([C@@H](C)CC)NC(=O)[C@H](Cc2ccc(O)cc2)NC(=O)[C@H](CCC(=O)O)NC(=O)[C@H](CC(C)C)NC(=O)CNC(=O)[C@@H](N)CSSC[C@H](N)C(=O)N[C@@H]([C@@H](C)O)C(=O)N[C@@H](CC(=O)O)C(=O)NCC(=O)N[C@@H](CS)C(=O)N[C@H](CO)C(=O)N[C@@H](CCSC)C(=O)N[C@@H](CCCCN)C(=O)N[C@@H](CC(=O)O)C(=O)N[C@@H](CC(C)C)C(=O)N[C@@H](CO)C(=O)N[C@@H](C)C(=O)N[C@@H](CC(C)C)C(=O)N[C@H](C(=O)O)CSSC[C@@H](C(=O)NCC(=O)N[C@@H](C)C(=O)N[C@@H](CO)C(=O)N[C@@H](CCCNC(=N)N)C(=O)N[C@@H](Cc2c[nH]c3ccccc23)C(=O)O)NC1=O | 4.68 | 1.66 | – | 75.9 | – | 16.2 | – | – | – | – | 155 | – |
| CC[C@H](C)[C@@H]1NC(=O)[C@H](Cc2ccc(O)cc2)NC(=O)[C@H]([C@@H](C)CC)NC(=O)[C@H](C(C)C)NC(=O)[C@H]([C@@H](C)O)NC(=O)[C@H](CCCNC(=N)N)NC(=O)[C@H]([C@@H](C)CC)NC(=O)[C@H](Cc2ccc(O)cc2)NC(=O)[C@H](CCC(=O)O)NC(=O)[C@H](CC(C)C)NC(=O)CNC(=O)[C@@H](N)CSSC[C@H](N)C(=O)N[C@@H]([C@@H](C)O)C(=O)N[C@@H](CC(=O)O)C(=O)NCC(=O)N[C@@H](CS)C(=O)N[C@H](CO)C(=O)N[C@@H](CCSC)C(=O)N[C@@H](CCCCN)C(=O)N[C@@H](CC(=O)O)C(=O)N[C@@H](CC(C)C)C(=O)N[C@@H](CO)C(=O)N[C@@H](C)C(=O)N[C@@H](CC(C)C)C(=O)N[C@H](C(=O)O)CSSC[C@@H](C(=O)NCC(=O)NCC(=O)N[C@@H](CO)C(=O)N[C@@H](CCCNC(=N)N)C(=O)N[C@@H](Cc2c[nH]c3ccccc23)C(=O)O)NC1=O | 2.29 | 1.17 | – | 603 | – | 263 | – | – | – | – | 4790 | 22.4 |
